Structures are written as SMILES.

The values that follow come from patent publication US4686229A, “1,4-dihydropyridines” (Bayer Aktiengesellschaft, priority 1984, dated 1987).

The test deals with synthesis of PGI2. The test is described as follows: Prostacyclin stimulation in whole blood (collagen-induced PGI2 formation, 6-keto-PGF1 alpha by radioimmunoassay). It is filed as cell-based. The source says: The 1,4-dihydropyridines to be used according to the invention also stimulate the synthesis of PGI2. In contrast to thromboxane, which has a vasoconstricting action and initiates platelet aggregation, PGI^2 has a vasodilating action and inhibits platelet aggregation.
The formation of PGI2 can be induced in whole blood by collagen. The endoperoxides formed in platelets are probably converted into PGI2 by […]. The stable end product of the PGI2 conversion, 6-keto-PGF1 α, is determined radioimmunologically.
As to `CC1=C(C(=O)OCCCc2cccnc2)C(c2ccc(CO)cc2)C(C(=O)OCCCc2cccnc2)=C(C)N1` [Example 1, Di-3-(pyrid-3-yl)-propyl 1,4-dihydro-4-(4-hydroxymethylphenyl)-2,6-dimethylpyridine-3,5-dicarboxylate], the “Stimulation (%) (prostacyclin stimulation)” value (“Stimulation (%)” below) came to 158%.

As for `CC1=C(C(=O)OCCCc2cccnc2)CC(C(=O)OCCCc2cccnc2)=C(C)N1` [Example 4, Di-3-(pyrid-3-yl)-propyl 1,4-dihydro-2,6-dimethylpyridine-3,5-dicarboxylate], the “Stimulation (%)” value is listed as ~ 50%. Next, `COC(=O)C1C(C(=O)OCCCc2cccnc2)=C(C)NC(C)=C1C(=O)OCCCc1cccnc1` [Example 5, 4-Methyl 3,5-di-3-(pyrid-3-yl)-propyl 1,4-dihydro-2,6-dimethyl-pyridine-3,4,5-tricarboxylate]: 100%.

Consider `CC1=C(C(=O)OCCCc2cccnc2)C(c2ccc(C(=O)NCc3cccnc3)cc2)C(C(=O)OCCCc2cccnc2)=C(C)N1` [Example 10, Di-3-(pyrid-3-yl)-propyl 1,4-dihydro-2,6-dimethyl-4-[4-N-(pyrid-3-ylmethyl)-carbamoylphenyl]-pyridine-3,5-dicarboxylate], for which the “Stimulation (%)” value is reported as ~ 50%.

Consider `CC1=C(C(=O)OCCCc2cccnc2)C(c2ccc(C(=O)NCc3ccco3)cc2)C(C(=O)OCCCc2cccnc2)=C(C)N1` [Example 11, Di-3-(pyrid-3-yl)-propyl 4-[4-N-(2-furylmethyl)-carbamoylphenyl]-1,4-dihydro-2,6-dimethyl-pyridine-3,5-dicarboxylate], for which the “Stimulation (%)” value is ~ 100%.
